We go through seven compounds from patent publication US11191273B2, “Methods of making pyranopyrans such as pyranopyran nitrile and methods of using pyranopyrans such as pyranopyran nitrile” (The United States of America, as Represented by the …, priority 2018, dated 2021).

The test system of series [1] is Flavobacterium columnare ALM-00-173. Nature of the series: rapid 96-well microplate antibacterial bioassay against F. columnare. It counts as cell-based. As to conditions: F. columnare ALM-00-173; for MIC RDCF (relative-to-drug-control florfenicol): MIC divided by MIC of florfenicol; for IC50 / MIC: Flavobacterium columnare; for IC50: ALM00173, 24 h; for MIC: ALM00173, read-out: MIC (minimum inhibitory concentration); for MIC / MIC (minimum inhibitory concentration): 24 h. The text has this:
An isolate of F. columnare [isolate ALM-00-173 (genomovar II)] was obtained from Dr. Covadonga Arias (School of Fisheries, Aquaculture and Aquatic Sciences, Auburn University, Auburn, Ala.). In order to assure purity, cultures of F. columnare ALM-00-173 were maintained separately on modified Shieh (MS) agar plates (pH 7.2-7.4) (Decostere, A., et al., Laboratory Animals, 36: 396-402 (2003)). Prior to conducting the bioassay, colonies of F. columnare ALM-00-173 were used to prepare the assay culture material by culturing in 75 mL of MS broth for 24 h at 29±1° C. at 150 rpm on a rotary shaker (model C24KC; New Brunswick Scientific, Edison, N.J.). After overnight incubation, a 0.5 McFarland standard of F. columnare ALM-00-173 culture material was prepared by transferring cells from the broth culture to fresh MS broth (Schrader, K. K., and M. D. Harries, Aquaculture Research, 37: 928-937 (2006)).
(§1) The pure test compounds (−)-diplopyrone and (−)-diplopyrone acetate were dissolved in technical grade 100% methanol while (−)-diplopyrone nitrile was dissolved in technical grade 100% acetone. The three test compounds were evaluated for antibacterial activity against F. columnare ALM-00-173 and E. ictaluri S02-1039 using a rapid 96-well microplate bioassay and following previous procedures (Schrader and Harries 2006). Florfenicol was included as a positive drug control. Control wells (no test material added) were also included in each assay. Final test concentrations of compounds and florfenicol were 0.01, 0.1, 1.0, 10.0, 100.0, and 1000.0 μM. Three replications were used for each dilution of each test compound and drug control, and final results were converted to units of mg/L to allow comparison with previous studies.
(§2) The 24-h 50% inhibition concentration (IC50) and minimum inhibitory concentration (MIC) were determined using sterile 96-well (flat bottom) polystyrene microplates (Corning Costar Corp., Acton, Mass.) for (−)-diplopyrone and (−)-diplopyrone acetate. In order to prevent solvent interaction with polystyrene, sterile 96-well (flat bottom) quartz microplates (Hellma Cells, Inc., Forest Hills, N.Y.) were used for (−)-diplopyrone nitrile. Initially, dissolved test compounds or florfenicol were micropippeted separately into individual microplate wells (10 μL/well), and the solvent was allowed to completely evaporate before 0.5 MacFarland bacterial culture was added to the microplate wells (200 μL/well). Microplates were incubated at 29±1° C. (VWR model 2005 incubator; Sheldon Manufacturing, Inc., Cornelius, Oreg.). A microplate photometer (SpectraCount, Packard Instrument Company, Meriden, Conn.) was used to measure the absorbance (630 nm) of the microplate wells at time 0 and 24-h. Two replicates of each microplate bioassay were made. Cell viability of F. columnare ALM-00-173 and E. ictaluri S02-1039 was determined at the completion of the growth bioassay for each test compound using the yellow dye 3(4,5-dimethylthiazol-2-yl)-2,5-diphenyl tetrazolium bromide (MTT) and previously outlined procedures (Schrader and Harries 2006). In addition, the minimum bactericidal concentration (MBC) was determined for very active compounds (Schrader and Harries 2006).
(§3) The means and standard errors of absorbance measurements were calculated, graphed, and compared to controls to determine the MIC, 24-h IC50, and MTT 24-h IC50 for each test compound. The 24-h IC50 and MIC results for each test compound were divided by the respective 24-h IC50 and MIC results obtained for the positive control florfenicol to determine the relative-to-drug-control florfenicol (RDCF) values.

For series [2], the system named is Edwardsiella ictaluri S02-1039. The series can be described thus: rapid 96-well microplate antibacterial bioassay against E. ictaluri. It is filed as cell-based. Particulars: E. ictaluri S02-1039; for MIC RDCF (relative-to-drug-control florfenicol): MIC divided by MIC of florfenicol; for IC50 / MIC: Edwardsiella ictaluri; for IC50: S021039, 24 h; for MIC: S021039, read-out: MIC (minimum inhibitory concentration); for MIC / MIC (minimum inhibitory concentration): 24 h.
Excerpt: An isolate of E. ictaluri (isolate S02-1039) was obtained from a person (formerly with the College of Veterinary Medicine, Mississippi State University, Stoneville, Miss.). In order to assure purity, cultures of E. ictaluri S02-1039 were maintained on 3.8% Mueller-Hinton (MH) agar plates (pH 7.3) (Becton, Dickinson and Company, Sparks, Md.). Prior to conducting the bioassay, colonies of E. ictaluri S02-1039 were used to prepare assay culture material by aseptically transferring bacterial cells from colonies to 45 mL of 3.8% MH broth to form a bacterial cell density of 0.5 McFarland standard.
as §1, §2, §3

[3] abbreviates: absorbance 630 nm, SE in parentheses, read-out: 24-h IC50 (50% inhibition concentration).
The mark [4] stands for this setting: tetrazolium bromide dye MTT, read-out: MTT 24-h IC50 (cell viability).
Where [5] appears, read: absorbance 630 nm, SE in parentheses.

SMILES strings stand for the structures. Converted amounts (≈) assume the structure as drawn. “And” between values parts separate entries of the source, which are not always exact repeats. Equal values may be shown once. Read-outs that look alike come from different tables or passages of the source.

`C#C[C@@H]1C=C[C@H]2OC(=O)C=C[C@H]2O1` [compound 36, (4aR,6S,8aR)-6-Ethynyl-6,8a-dihydropyrano[3,2-b]pyran-2(4aH)-one] yielded a melting point of 153 to 154 °C.
In turn, `NC(=O)[C@@H]1C=C[C@H]2OC(=O)C=C[C@H]2O1` [Pyranopyran amide (29), (2S,4aR,8aR)-6-Oxo-2,4a,6,8a-tetrahydropyrano[3,2-b]pyran-2-carboxamide] had a melting point of 160 to 164 °C. In addition, in series [1], the “MIC RDCF (relative-to-drug-control florfenicol)” value is 297.9 (243.8). The IC50 in series [1] (setting [3]) amounted to 54.6 µg/mL (≈ 280 µM). Also, the IC50 in series [1] (setting [4]) is 75.1 µg/mL (≈ 385 µM). In addition, the MIC in series [1] (SE in parentheses) was found to be 107 µg/mL (≈ 550 µM). In addition, the “MIC RDCF (relative-to-drug-control florfenicol)” value in series [2] is reported as 54.2 (0). Also, the IC50 in series [2] (setting [3]) stood at 20.5 µg/mL (≈ 105 µM). The IC50 in series [2] (setting [4]) turned out to be 16.6 µg/mL (≈ 85.1 µM). The MIC in series [2] (SE in parentheses) was determined as 19.5 µg/mL (≈ 99.9 µM).
Take `CS(=O)(=O)c1ccc([C@@H](O)[C@@H](CF)NC(=O)C(Cl)Cl)cc1` [Florfenicol, reference compound]: the entries for the “24-h IC50 (50% inhibition concentration)” value in series [1] (setting [5]) and in series [2] (setting [5]) were 0.54 mg/L and 0.14 mg/L, respectively. Moreover, the IC50 in series [1] (setting [3]) stood at 0.69 µg/mL (≈ 1.93 µM); in series [2] (setting [3]), 0.18 µg/mL (≈ 0.502 µM). Also, the MIC in series [1] (SE in parentheses) and in series [2] (SE in parentheses) was 0.36 µg/mL (≈ 1 µM) each time.
Turning to `O=C1C=C[C@H]2O[C@H](CO)C=C[C@H]2O1` [Desmethylpyranopyran (28), (4aR,6S,8aR)-6-(Hydroxymethyl)-6,8a-dihydropyrano[3,2-b]pyran-2(4aH)-one], the “MIC RDCF (relative-to-drug-control florfenicol)” value is reported as 505.6 (0) in series [1] and 50.6 (0) in series [2]. Besides, the IC50 in series [1] (setting [3]) was 76.4 µg/mL (≈ 419 µM); in series [1] (setting [4]), 79.2 µg/mL (≈ 435 µM); in series [2] (setting [3]) it was 48.2 µg/mL (≈ 265 µM); in series [2] (setting [4]), 14.7 µg/mL (≈ 80.7 µM). In addition, the MIC stood at 182 µg/mL (≈ 999 µM) in series [1] (SE in parentheses) and 18.2 µg/mL (≈ 99.9 µM) in series [2] (SE in parentheses).
With `C[C@@H](O)[C@@H]1C=C[C@H]2OC(=O)C=C[C@H]2O1` [Pyranopyran (2), (4aR,6S,8aR)-6-((R)-1-Hydroxyethyl)-6,8a-dihydropyrano[3,2-b]pyran-2-(4aH)-one], the “MIC (minimum inhibitory concentration)” value in series [1] (SE in parentheses) was 196.0 (0) mg/L; in series [2] (SE in parentheses) it was 19.6±0 mg/L and 19.6 (0) mg/L. The results for the “MIC RDCF (relative-to-drug-control florfenicol)” value in series [1] and in series [2] were 544.4 (0) and 54.4 (0), respectively. Moreover, the “24-h IC50 (50% inhibition concentration)” value is 76.4 (2.0) mg/L in series [1] (setting [5]) and 46.1 ± 1.0 mg/L in series [2] (setting [5]). The “MTT 24-h IC50 (cell viability)” value is recorded as 78.4 (0) mg/L in series [1] (tetrazolium bromide dye MTT) and 22.1 (9.3) mg/L in series [2] (tetrazolium bromide dye MTT).
`CC(=O)OC[C@@H]1C=C[C@H]2OC(=O)C=C[C@H]2O1` [Desmethylpyranopyran acetate (27), (2S,4aR,8aR)-6-Oxo-2,4a,6,8a-tetrahydropyrano[3,2-b]pyran-2-yl]methyl acetate]: the “MIC (minimum inhibitory concentration)” value in series [1] (SE in parentheses) was 224.0 (0) mg/L; in series [2] (SE in parentheses) it was 22.4 (0) mg/L. The “MIC RDCF (relative-to-drug-control florfenicol)” value in series [1] is listed as 622.2 (0); in series [2], 62.2 (0). Besides, the “24-h IC50 (50% inhibition concentration)” value in series [1] (setting [5]) is above 224.0 mg/L; in series [2] (setting [5]), 39.2 (1.1) mg/L. Also, the “MTT 24-h IC50 (cell viability)” value in series [1] (tetrazolium bromide dye MTT) is above 224.0 mg/L; in series [2] (tetrazolium bromide dye MTT), 35.8 (4.5) mg/L.
Turning to `CC(=O)O[C@H](C)[C@@H]1C=C[C@H]2OC(=O)C=C[C@H]2O1` [Pyranopyran acetate (3), (4aR,6S,8aR)-6-((R)-1-Acetoxyethyl)-6,8a-dihydropyrano[3,2-b]pyran-2-(4aH)-one], the “MIC (minimum inhibitory concentration)” value in series [1] (SE in parentheses) is 238 mg/L and 238.0 (0) mg/L; in series [2] (SE in parentheses), 238.0 (0) mg/L. The “MIC RDCF (relative-to-drug-control florfenicol)” value in series [1] and in series [2] was 661.1 (0) throughout. The “24-h IC50 (50% inhibition concentration)” value is on record as above 238.0 mg/L in series [1] (setting [5]) and 165.4 (1.2) mg/L in series [2] (setting [5]). In addition, the “MTT 24-h IC50 (cell viability)” value in series [1] (tetrazolium bromide dye MTT) is given as above 238.0 mg/L; in series [2] (tetrazolium bromide dye MTT), 90.4 (4.8) mg/L.

Usually melting point stands for the temperature, or range, at which the solid turns liquid.
